Data: US20230321043A1, “COMPOUNDS HAVING PSEUDOMONAS ANTI-BIOFILM PROPERTIES” (Københavns Universitet, priority 2020, published 2023)

Legend:
[1] = tested on: P. aeruginosa biofilm on urinary tract catheters; experiment: catheter associated urinary tract infection model in mice; format: in vivo
Procedure: Silicone catheters (5 mm long, 0.64 mm OD×0.3 mm ID) incubated with P. aeruginosa cultures (OD 1) for 22 hours to allow bacterial adhesion and subsequent coating. Mice then had the catheters inserted in the bladder and biofilm developed on the catheters for 24 hours. […] At 48 hours post-insertion the mice were euthanized, and the bacterial contents as CFU per implant were determined. Two experiments were pooled, and the median CFU per implant for the placebo group was set to 100. Horizontal lines indicate median CFU for each group. Each symbol represents a mouse. IP administered doses: H6 P1: 2×13 mg/Kg BW, CIP: 2×1 mg/Kg BW.
Silicone catheters (5 mm long, 0.64 mm OD×0.3 mm ID) incubated with P. aeruginosa cultures (OD 1) for 22 hours to allow bacterial adhesion and subsequent coating. Mice then had the catheters inserted in the bladder and biofilm developed on the catheters for 24 hours. […] At 48 hours post-insertion the mice were euthanized, and the bacterial contents as CFU per implant were determined. The median CFU per catheter for the control groups were set to 100. The median CFU per catheter for the placebo groups were 3×10^5 and 7×10^4. Horizontal lines indicate median CFU for each group. Each symbol represents one mouse. Orally administered doses: 2×13 mg/Kg BW, 2×3.3 mg/Kg BW. […]

[2] = tested on: P. aeruginosa ΔwspFΔpelΔpsl; experiment: growth (OD600) of treated cultures; format: cell-based, Pseudomonas aeruginosa; conditions: 0 to 100 μM, 24 hours, FIG. 3B
Procedure: (§1) Specifically, a 20 h old culture of P. aeruginosa ΔwspF,Δpsl,Δpel (Rybtke et al 2012) was diluted 100 fold into 25 mL aliquots of ABtrace media supplemented with 0.5% Cas amino acids, 0.2% glucose, 60 μg/mL of gentamicin, 1 μM FeCl3, 0.05% DMSO and either 100 μM H6-335-P1, 100 μM H6-335 or no compound as reference control. Acting as a positive control for low total cellular c-di-GMP content, a 20 hour old culture of strain P. aeruginosa ΔwspF,Δpsl,Δpel carrying plasmid pYhj::Gm (encoding a constitutively expressed YhjH phosphodiesterase) was also diluted 100 fold into 25 mL of ABtrace medium supplemented with 0.5% Cas amino acids, 0.2% glucose, 60 μg/mL of gentamicin, 1 μM FeCl3 and 0.05% DMSO. The 4 cultures were placed on a rotary shaker and following 8 hours of growth at 37° C. and 200 RPM culture samples for c-di-GMP extraction and protein quantification was collected from each of the 4 different cultures. C-di-GMP extracts were prepared and subsequently quantified by HPLC coupled tandem-MS analysis as previously described (Groizeleau et al., 2016), while protein quantification was carried out using the Pierce 660 nm Protein Assay (Thermo Scientific Cat. No 22660) according to the manufacturer's protocol. […]

wt P. aeruginosa biofilm = experiment: time dependent liberation of bacteria from biofilm (CFU); format: cell-based, Pseudomonas aeruginosa; conditions: 25 μM, 18 hours old biofilm, FIG. 4C
Procedure: In a further experiment (FIG. 4C) the time dependent liberation of wt P. aeruginosa bacteria during H6-335-P1 induced dispersal performed in 48 well trays microtiter trays was determined. After 18 hours of growth in ABtrace media aliquots supplemented with 0.5% glucose, 0.5% Cas amino acids and 1 μM FeCl3 on a rotary shaker, 25 μM H6-335-P1 or 1% DMSO control was added. At the time-points indicated, samples were withdrawn and plated for CFU determinations. Average CFU's per ml for the 1% DMSO controls at each time point are set to 100.

Staphylococcus aureus = experiment: biofilm formation / dispersal, host range; format: cell-based; conditions: data not shown
[3] = tested on: total cellular c-di-GMP content of P. aeruginosa ΔwspF,Δpsl,Δpel; experiment: HPLC coupled tandem-MS quantification of c-di-GMP extracts; format: cell-based, Pseudomonas aeruginosa; conditions: 100 μM, 8 hours of growth; pmol c-di-GMP per mg protein, FIG. 1
Procedure: as §1

N=C1NN=C(N)/C1=N/Nc1ccccc1F [H6-335-P1, 4-[(2-fluorophenyl) hydrazinylidene]pyrazole-3,5-diamine]
number of bacteria on the catheters, intraperitoneal administration ([1]; given as H6-335-P1:HCl 2×13 mg/Kg BW IP, with or without ciprofloxacin, FIG. 10A): reduced the number of bacteria on the catheters
biofilm mass on the catheters, oral administration ([1]; given as H6-335-P1:HCl in Nutella, as low as […] (3.3 mg/Kg BW), FIG. 10B): significantly reduces the biofilm mass on the catheters
effect on growth (OD600) [2]: does not inhibit growth
dispersal of live bacteria from already formed biofilms (wt P. aeruginosa biofilm): induced dispersal of live bacteria into the growth medium
biofilm formation of Staphylococcus aureus (Staphylococcus aureus): failed to reduce biofilm formation
reduction of total cellular c-di-GMP content [3]: 90%
